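96-well plates; 48 h exposure; 5 concentrations. Endpoints by linear interpolation between flanking doses. Not reached: highest tested concentration assigned. Here, GI50 denotes the concentration required for 50% inhibition of growth.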 Calls of active or inactive are those of the source. Rule as the data show it: active = GI50 up to about 1.1 µM and inactive = higher.
What was measured:
Assay in all cases: NCI tumour cell line growth inhibition, 48 h
[1] = test system: ACHN
[2] = test system: BT-549
[3] = test system: CAKI-1
[4] = test system: DU-145
[5] = test system: HL-60
[6] = test system: IGROV-1
[7] = test system: K562
[8] = test system: MCF7
[9] = test system: MDA-MB-231
[10] = test system: NCI-H460
[11] = test system: NCI/ADR-RES
[12] = test system: OVCAR-8
[13] = test system: PC-3
[14] = test system: SK-MEL-2
[15] = test system: SK-OV-3
[16] = test system: SR
[17] = test system: TK-10
[18] = test system: HCC 2998
[19] = test system: MDA-N

Row | Structure (SMILES) | GI50 [1] | GI50 [2] | GI50 [3] | GI50 [4] | GI50 [5] | GI50 [6] | GI50 [7] | GI50 [8] | GI50 [9] | GI50 [10] | GI50 [11] | GI50 [12] | GI50 [13] | GI50 [14] | GI50 [15] | GI50 [16] | GI50 [17] | GI50 [18] | GI50 [19]
1 | Nc1cc(Cl)ccc1SSc1ccc(Cl)cc1N | 9.55 µM (inactive) | 9.91 µM (inactive) | 19.6 µM (inactive) | 15.2 µM (inactive) | 16 µM (inactive) | 10.1 µM (inactive) | 10.4 µM (inactive) | 3.85 µM (inactive) | 5.6 µM (inactive) | 12.5 µM (inactive) | 7.94 µM (inactive) | 16.6 µM (inactive) | 5.7 µM (inactive) | 17 µM (inactive) | 15.7 µM (inactive) | 4.32 µM (inactive) | 20.2 µM (inactive) | – | –
2 | Cc1cc2c(cc1Cl)S(=O)(=O)OC(c1ccc([N+](=O)[O-])cc1)=N2 | > 100 µM (inactive) | > 100 µM (inactive) | > 100 µM (inactive) | > 100 µM (inactive) | > 100 µM (inactive) | > 100 µM (inactive) | 91 µM (inactive) | > 100 µM (inactive) | > 100 µM (inactive) | > 100 µM (inactive) | > 100 µM (inactive) | > 100 µM (inactive) | > 100 µM (inactive) | – | > 100 µM (inactive) | > 100 µM (inactive) | > 100 µM (inactive) | > 100 µM (inactive) | –
3 | CC(=O)Oc1c(C)cc(-c2cc(C)c(OC(C)=O)c(C)c2)cc1C | 33 µM (inactive) | 10.8 µM (inactive) | 57.9 µM (inactive) | 41.7 µM (inactive) | 35.2 µM (inactive) | 40.9 µM (inactive) | > 100 µM (inactive) | > 100 µM (inactive) | – | 39.9 µM (inactive) | 21.1 µM (inactive) | 37.1 µM (inactive) | 14.1 µM (inactive) | 41.6 µM (inactive) | 19.5 µM (inactive) | 75.2 µM (inactive) | 30.5 µM (inactive) | – | 4.98 µM (inactive)
4 | COc1ccc(CNC(=O)NCn2cc(-c3ccccc3)nn2)cc1 | > 100 µM (inactive) | > 100 µM (inactive) | > 100 µM (inactive) | > 100 µM (inactive) | > 100 µM (inactive) | > 100 µM (inactive) | > 100 µM (inactive) | > 100 µM (inactive) | > 100 µM (inactive) | > 100 µM (inactive) | > 100 µM (inactive) | > 100 µM (inactive) | > 100 µM (inactive) | > 100 µM (inactive) | – | > 100 µM (inactive) | > 100 µM (inactive) | 14.1 µM (inactive) | –
5 | C[n+]1c2ccccc2c(CNC(CS)C(=O)O)c2ccccc21 (stereo not given) | 27.2 µM (inactive) | – | 29.6 µM (inactive) | – | 17.3 µM (inactive) | 18.8 µM (inactive) | 31.8 µM (inactive) | – | – | 21.8 µM (inactive) | – | 25.4 µM (inactive) | – | 26.8 µM (inactive) | 23.1 µM (inactive) | 12.7 µM (inactive) | 39.1 µM (inactive) | 31.5 µM (inactive) | –
6 | CN(C)CCNc1ccc(NCCN(C)C)c2c1C(=O)c1ncsc1C2=O | 8.2 µM (inactive) | 18.1 µM (inactive) | 16.9 µM (inactive) | 13.2 µM (inactive) | – | 13.5 µM (inactive) | 13.6 µM (inactive) | 7.33 µM (inactive) | 15.9 µM (inactive) | – | 35.7 µM (inactive) | 12.5 µM (inactive) | 15.3 µM (inactive) | 20.2 µM (inactive) | 18.8 µM (inactive) | 1.21 µM (inactive) | 24.8 µM (inactive) | 15 µM (inactive) | –
7 | Nc1ncnc2c1ncn2C1OC(COC2C(CO)OC(OC(C(=O)O)C(O)C(OP(=O)(O)O)C(O)C(=O)O)C(O)C2O)C(O)C1O (stereo not given) | 37.7 µM (inactive) | > 100 µM (inactive) | > 100 µM (inactive) | – | > 100 µM (inactive) | > 100 µM (inactive) | > 100 µM (inactive) | > 100 µM (inactive) | > 100 µM (inactive) | > 100 µM (inactive) | – | > 100 µM (inactive) | > 100 µM (inactive) | > 100 µM (inactive) | > 100 µM (inactive) | 15.7 µM (inactive) | > 100 µM (inactive) | > 100 µM (inactive) | –
8 | C=C1OC2OC(C)C(NC(=O)OCC(Cl)(Cl)Cl)C(OC(C)=O)C2O1 (stereo not given) | > 100 µM (inactive) | > 100 µM (inactive) | > 100 µM (inactive) | > 100 µM (inactive) | > 100 µM (inactive) | > 100 µM (inactive) | > 100 µM (inactive) | > 100 µM (inactive) | > 100 µM (inactive) | > 100 µM (inactive) | > 100 µM (inactive) | > 100 µM (inactive) | > 100 µM (inactive) | – | > 100 µM (inactive) | > 100 µM (inactive) | > 100 µM (inactive) | > 100 µM (inactive) | –
9 | [O-][S+](c1ccccc1)C1CC2CC3(CCC21O)OCCO3 (stereo not given) | > 100 µM (inactive) | – | > 100 µM (inactive) | > 100 µM (inactive) | > 100 µM (inactive) | > 100 µM (inactive) | > 100 µM (inactive) | > 100 µM (inactive) | > 100 µM (inactive) | > 100 µM (inactive) | > 100 µM (inactive) | > 100 µM (inactive) | > 100 µM (inactive) | > 100 µM (inactive) | > 100 µM (inactive) | > 100 µM (inactive) | > 100 µM (inactive) | > 100 µM (inactive) | > 100 µM (inactive)
10 | O=C(O)c1cccc(S(=O)(=O)NN2C(=O)CSC2c2c(O)ccc3ccccc23)c1 (stereo not given) | 34.1 µM (inactive) | – | 25.5 µM (inactive) | 44.7 µM (inactive) | 28 µM (inactive) | 18 µM (inactive) | 31.3 µM (inactive) | – | 26.8 µM (inactive) | 34.7 µM (inactive) | 22.1 µM (inactive) | < 0.01 µM (active) | 33 µM (inactive) | 33.5 µM (inactive) | 37.7 µM (inactive) | 24.9 µM (inactive) | > 100 µM (inactive) | 52.6 µM (inactive) | 37.8 µM (inactive)
11 | O=C(Nc1ccccc1C(=O)O)C(=O)C(C(=O)c1ccccc1-c1ccccc1)C1OC(=O)c2ccccc21 (stereo not given) | 34 µM (inactive) | – | 36 µM (inactive) | – | 23.9 µM (inactive) | 25.6 µM (inactive) | 36.1 µM (inactive) | – | – | 17.8 µM (inactive) | – | 15.7 µM (inactive) | – | 38 µM (inactive) | 30.9 µM (inactive) | 18.3 µM (inactive) | 13.9 µM (inactive) | 16.5 µM (inactive) | –
12 | CC(=O)c1sc2[n+](c1C)C(=O)/C(=C\c1ccccc1Cl)S2 | 20.5 µM (inactive) | – | 24.5 µM (inactive) | 18.7 µM (inactive) | 20.7 µM (inactive) | 18.3 µM (inactive) | 25.5 µM (inactive) | 16.1 µM (inactive) | 25.4 µM (inactive) | 16.3 µM (inactive) | 21 µM (inactive) | 24.3 µM (inactive) | 22.5 µM (inactive) | 24 µM (inactive) | 25.1 µM (inactive) | 18.3 µM (inactive) | 26.9 µM (inactive) | 20 µM (inactive) | 19.4 µM (inactive)
13 | COC(=O)[C@@H]1[C@H](O)CCC2=C(CC(=O)c3ccoc3)[C@H](C)CC[C@]21C | > 50 µM (inactive) | 18.8 µM (inactive) | > 50 µM (inactive) | – | – | > 50 µM (inactive) | 16.8 µM (inactive) | 26.4 µM (inactive) | > 50 µM (inactive) | 23.9 µM (inactive) | 22.2 µM (inactive) | 35.8 µM (inactive) | 23.4 µM (inactive) | > 50 µM (inactive) | > 50 µM (inactive) | – | > 50 µM (inactive) | > 50 µM (inactive) | 24.5 µM (inactive)
14 | CCOc1cc(/C=N\N(C)C)cc(/C=N\N(C)C)c1O | 21.5 µM (inactive) | – | 18.3 µM (inactive) | > 100 µM (inactive) | 52.5 µM (inactive) | – | > 100 µM (inactive) | – | 43.1 µM (inactive) | 30.1 µM (inactive) | 35.8 µM (inactive) | 21.6 µM (inactive) | 33.2 µM (inactive) | 28.2 µM (inactive) | 29.4 µM (inactive) | 38 µM (inactive) | 69.2 µM (inactive) | 91.2 µM (inactive) | 32.8 µM (inactive)
15 | COc1c(O)cc2c(c1O)C(=O)C1=C(CCCC1)C2=O | 23 µM (inactive) | 23 µM (inactive) | 27.5 µM (inactive) | 22.3 µM (inactive) | 8.24 µM (inactive) | 12.6 µM (inactive) | – | 33.9 µM (inactive) | 19 µM (inactive) | 27.1 µM (inactive) | 17.3 µM (inactive) | 20.4 µM (inactive) | 22.8 µM (inactive) | 37.6 µM (inactive) | 19.8 µM (inactive) | 10.8 µM (inactive) | 34.3 µM (inactive) | 21.9 µM (inactive) | –
16 | CC(C)(C)c1ccnc(/N=C2\N/C(=N\c3cc(C(C)(C)C)ccn3)c3ccccc32)c1 | > 100 µM (inactive) | – | 26.6 µM (inactive) | – | 36.3 µM (inactive) | 23.1 µM (inactive) | 41.3 µM (inactive) | – | – | 38.7 µM (inactive) | – | 17.9 µM (inactive) | – | 56.9 µM (inactive) | 26.5 µM (inactive) | 31.4 µM (inactive) | 21.4 µM (inactive) | – | –
17 | CC1(C)[N+]([O-])=[N+]([O-])C1(C)Br (stereo not given) | > 100 µM (inactive) | > 100 µM (inactive) | > 100 µM (inactive) | – | – | > 100 µM (inactive) | > 100 µM (inactive) | > 100 µM (inactive) | > 100 µM (inactive) | > 100 µM (inactive) | 65.8 µM (inactive) | > 100 µM (inactive) | > 100 µM (inactive) | > 100 µM (inactive) | > 100 µM (inactive) | 91 µM (inactive) | > 100 µM (inactive) | > 100 µM (inactive) | –
